Assay results reported in US7109380B2, “Cyclopentenedione antifungal compounds and methods for their use” (The University of Mississippi, priority 2004, dated 2006).
≈ marks a conversion by molar mass, not a printed value.

Legend:
Assay type in all cases: cell-based
[1] = system: M. intracellulare ATCC 23068; test: In vitro antibacterial assay (modified method of Franzblau, Alamar Blue); conditions: Mycobacterium intracellulare, ATCC23068, M. intracellulare ATCC 23068
[2] = system: Botrytis cinerea; test: 96-well microtiter fungal growth assay;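 further: percent relative to untreated positive growth controls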
Text: (§1) Pathogen collection. Isolates of Colletotrichum acutatum Simmonds, Colletotrichum fragariae Brooks, and Colletotrichum gloeosporioides (Penz.) Penz. & Sacc. in Penz. were obtained from B. J. Smith, USDA, ARS, Small Fruit Research Station, Poplarville, Mass. Colletotrichum fragariae (isolate CF63), C. acutatum (isolate CAGoff), and C. gloeosporioides (isolate CG162) were used for all pathogen and bioautography studies. Isolate CF63 is one of the most virulent isolates at infecting strawberry plants and inducing both crown and fruit rot (Smith and Black, 1990). CF63, CAGoff, and CG162 were used as standard test isolates because of our extensive knowledge of these isolates and their known fungicide sensitivity profiles in both bioautography and microtiter formats. The three Colletotrichum species were isolated from strawberry (Fragaria xananassa Duchesne). Botrytis cinerea Pers.:Fr, was isolated from commercial grape (Vitis vinifera L.) and Fusarium oxysporum Schlechtend:Fr from orchid (Cynoches sp.) by David E. Wedge, USDA ARS Natural Products Utilization Research Unit. Phomopsis viticola (Sacc.) and P. obscurans (Ellis & Everh.) Sutton were from Mike A. Ellis, Ohio State University, Wooster, Ohio. Fungi were grown on potato-dextrose agar (PDA, Difco, Detroit Mich.) in 9 cm petri dishes and incubated in a growth chamber at 24±2° C. and under cool-white fluorescent lights ([…]·m^−2·sec^−1 light) with 12-h photoperiod.
(§2) Inoculum preparation. Conidia were harvested from 7–10 day-old cultures by flooding plates with 5 mL of sterile distilled water and dislodging conidia by softly brushing the colonies with an L-shaped glass rod. Conidial suspensions were filtered through sterile miracloth (Calbiochem-Novabiochem Corp., La Jolla Calif.) to remove mycelia. Conidia concentrations were determined photometrically, from a standard curve based on the absorbance at 625 nm and suspensions were then adjusted with sterile distilled water to a concentration of 1.0×10^6 conidia/mL.
(§3) Microtiter assay. A standardized 96-well microtiter plate assay developed for discovery of natural product fungicidal agents. A 96-well microtiter assay was used to determine sensitivity of B. cinerea, C. acutatum, C. fragariae, C. gloeosporioides, F. oxysporum, Phomopsis viticola, and P. obscurans to the various antifungal agents in comparison with known fungicidal standards. Vinclozolin, captan, and thiabendazole, which represent three different modes of action, were used as standards in this experiment. Each fungus was challenged in a dose-response format using test compounds where the final treatment concentrations were 0.3, 3.0 and 30.0 μM. Microtiter plates (Nunc MicroWell, untreated; Roskilde, Denmark) were covered with a plastic lid and incubated in a growth chamber at 24±1 C and 12 h photoperiod under 60±5 μmol light. Growth was then evaluated by measuring absorbance of each well at 620 nm using a microplate photometer (Packard Spectra Count, Packard Instrument Co., Downers Grove, Ill.).
(§4) Microbioassay Experimental Design. Chemical sensitivity of each fungus 96-well microtiter assay is used to determine sensitivity of B. cinerea, C. acutatum, C. fragariae, C. gloeosporioides, F. oxysporum, Phomopsis viticola, and P. obscurans. Each chemical is evaluated in duplicate at each dose (0.3, 3.0 and 30.0 μM) and repeated twice in time. Sixteen wells containing broth and inoculum serves as positive controls, eight wells containing solvent at the appropriate concentration and broth without inoculum are used as negative controls. Mean absorbance values and standard errors is used to evaluate fungal growth at 48 hrs and 72 hrs except for P. obscurans and P. viticola the data are recorded at 120 hrs. […] Treatments are arranged as a split-plot design replicated twice in time. Whole-plots were fungal isolates and sub-plots are chemicals. Each dose level and response time is analyzed separately. […]

[3] = system: Colletotrichum acutatum; test: 96-well microtiter fungal growth assay;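 further: percent relative to untreated positive growth controls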
Text: as §1, §2, §3, §4

[4] = system: Colletotrichum fragariae; test: 96-well microtiter fungal growth assay;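 further: percent relative to untreated positive growth controls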
Text: as §1, §2, §3, §4

[5] = system: Colletotrichum gloeosporioides; test: 96-well microtiter fungal growth assay;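 further: percent relative to untreated positive growth controls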
Text: as §1, §2, §3, §4

[6] = system: Fusarium oxysporum; test: 96-well microtiter fungal growth assay;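 further: percent relative to untreated positive growth controls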
Text: as §1, §2, §3, §4

[7] = system: Phomopsis obscurans; test: 96-well microtiter fungal growth assay
Text: as §1, §2, §3
(§5) Microbioassay Experimental Design. Chemical sensitivity of each fungus 96-well microtiter assay is used to determine sensitivity of B. cinerea, C. acutatum, C. fragariae, C. gloeosporioides, F. oxysporum, Phomopsis viticola, and P. obscurans. Each chemical is evaluated in duplicate at each dose (0.3, 3.0 and 30.0 μM) and repeated twice in time. Sixteen wells containing broth and inoculum serves as positive controls, eight wells containing solvent at the appropriate concentration and broth without inoculum are used as negative controls. […] Treatments are arranged as a split-plot design replicated twice in time. Whole-plots were fungal isolates and sub-plots are chemicals. Each dose level and response time is analyzed separately. The SAS system's analysis of variance procedure (Statistical Analysis System, Cary, N.C.) is used to identify significant factors and Fisher's protected LSD is used to separate means.

[8] = system: Phomopsis viticola; test: 96-well microtiter fungal growth assay;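 on Mean percent fungal growth inhibition of Phomopsis viticola: percent relative to untreated positive growth controls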
Text: as §1, §2, §3, §5

`O=C(O)c1cn(C2CC2)c2cc(N3CCNCC3)c(F)cc2c1=O` [CIP, ciprofloxacin, reference compound] showed an MIC [1] of 0.63 µg/mL (≈ 1.9 µM), an IC50 ([1]; read-out: IC50 (50% inhibitory concentration)) of 0.3 µg/mL (≈ 0.905 µM) and an MBC ([1]; read-out: MBC (Minimum Bactericidal Concentration)) of 1.25 µg/mL (≈ 3.77 µM).

`O=C1C2CC=CCC2C(=O)N1SC(Cl)(Cl)Cl` (stereo not drawn) [Captan] was tested, and the “Mean percent fungal growth inhibition of Botrytis cinerea” value ([2]; 0.3 μm, 48 hrs) was 3.1 ± 26.7%, the “Mean percent fungal growth inhibition of Botrytis cinerea” value ([2]; 0.3 μm, 72 hrs) was 3.4 ± 5.8% and the “Mean percent fungal growth inhibition of Botrytis cinerea” value ([2]; 3.0 μm, 48 hrs) was −45.9 ± 22.2%. For the same compound, the “Mean percent fungal growth inhibition of Botrytis cinerea” value ([2]; 3.0 μm, 72 hrs) was −46.1 ± 5.6%, the “Mean percent fungal growth inhibition of Botrytis cinerea” value ([2]; 30 μm, 48 hrs) was −76.4 ± 13.4% and the “Mean percent fungal growth inhibition of Botrytis cinerea” value ([2]; 30 μm, 72 hrs) was −98.7 ± 0.9%. For the same compound, the “Mean percent fungal growth inhibition of Colletotrichum acutatum” value ([3]; 0.3 μm, 48 hrs) was 42.5 ± 8.8%, the “Mean percent fungal growth inhibition of Colletotrichum acutatum” value ([3]; 0.3 μm, 72 hrs) was 35.4 ± 6.1% and the “Mean percent fungal growth inhibition of Colletotrichum acutatum” value ([3]; 3.0 μm, 48 hrs) was −98.0 ± 0.9%. For the same compound, the “Mean percent fungal growth inhibition of Colletotrichum acutatum” value ([3]; 3.0 μm, 72 hrs) was −94.1 ± 3.0%, the “Mean percent fungal growth inhibition of Colletotrichum acutatum” value ([3]; 30 μm, 48 hrs) was −98.6 ± 0.5% and the “Mean percent fungal growth inhibition of Colletotrichum acutatum” value ([3]; 30 μm, 72 hrs) was −99.7 ± 0.2%. The “Mean percent fungal growth inhibition of Colletotrichum fragariae” value ([4]; 0.3 μm, 48 hrs) was 18.1 ± 2.7%, the “Mean percent fungal growth inhibition of Colletotrichum fragariae” value ([4]; 0.3 μm, 72 hrs) was −17.5 ± 15.6% and the “Mean percent fungal growth inhibition of Colletotrichum fragariae” value ([4]; 3.0 μm, 48 hrs) was −96.2 ± 1.0%. For the same compound, the “Mean percent fungal growth inhibition of Colletotrichum fragariae” value ([4]; 3.0 μm, 72 hrs) was −74.0 ± 9.3%, the “Mean percent fungal growth inhibition of Colletotrichum fragariae” value ([4]; 30 μm, 48 hrs) was −99.7 ± 1.0% and the “Mean percent fungal growth inhibition of Colletotrichum fragariae” value ([4]; 30 μm, 72 hrs) was −91.4 ± 5.2%. For the same compound, the “Mean percent fungal growth inhibition of Colletotrichum gloeosporoides” value ([5]; 0.3 μm, 48 hrs) was 31.5 ± 7.3%, the “Mean percent fungal growth inhibition of Colletotrichum gloeosporoides” value ([5]; 0.3 μm, 72 hrs) was 38.6 ± 4.5% and the “Mean percent fungal growth inhibition of Colletotrichum gloeosporoides” value ([5]; 3.0 μm, 48 hrs) was −97.3 ± 1.5%. For the same compound, the “Mean percent fungal growth inhibition of Colletotrichum gloeosporoides” value ([5]; 3.0 μm, 72 hrs) was −95.2 ± 1.9%, the “Mean percent fungal growth inhibition of Colletotrichum gloeosporoides” value ([5]; 30 μm, 48 hrs) was −98.4 ± 0.5% and the “Mean percent fungal growth inhibition of Colletotrichum gloeosporoides” value ([5]; 30 μm, 72 hrs) was −98.6 ± 1.7%. For the same compound, the “Mean percent fungal growth inhibition of Fusarium oxysporum” value ([6]; 0.3 μm, 48 hrs) was 13.6 ± 3.5%, the “Mean percent fungal growth inhibition of Fusarium oxysporum” value ([6]; 0.3 μm, 72 hrs) was 12.0 ± 2.2% and the “Mean percent fungal growth inhibition of Fusarium oxysporum” value ([6]; 3.0 μm, 48 hrs) was −50.0 ± 2.8%. The “Mean percent fungal growth inhibition of Fusarium oxysporum” value ([6]; 3.0 μm, 72 hrs) was −5.4 ± 4.4%, the “Mean percent fungal growth inhibition of Fusarium oxysporum” value ([6]; 30 μm, 48 hrs) was −99.4 ± 0.3% and the “Mean percent fungal growth inhibition of Fusarium oxysporum” value ([6]; 30 μm, 72 hrs) was −99.5 ± 0.4%. For the same compound, the “Percent change in fungal growth vs control (negative = inhibition)” value (“Percent change … (negative = inhibition)” below) ([7]; 0.3 μm, 120 hrs) was −37.3 ± 6.6%, the “Percent change … (negative = inhibition)” value ([7]; 0.3 μm, 144 hrs) was −30.9 ± 6.3% and the “Percent change … (negative = inhibition)” value ([7]; 3.0 μm, 120 hrs) was −96.0 ± 1.8%. For the same compound, the “Percent change … (negative = inhibition)” value ([7]; 3.0 μm, 144 hrs) was −98.3 ± 0.6%, the “Percent change … (negative = inhibition)” value ([7]; 30 μm, 120 hrs) was −100 ± 0.0% and the “Percent change … (negative = inhibition)” value ([7]; 30 μm, 144 hrs) was −99.6 ± 0.2%. For the same compound, the “Mean percent fungal growth inhibition of Phomopsis viticola” value ([8]; 0.3 μm, 120 hrs) was −118.5 ± 198.7%, the “Mean percent fungal growth inhibition of Phomopsis viticola” value ([8]; 3.0 μm, 120 hrs) was −99.8 ± 38.2% and the “Mean percent fungal growth inhibition of Phomopsis viticola” value ([8]; 3.0 μm, 144 hrs) was −95.7 ± 26.0%. The “Mean percent fungal growth inhibition of Phomopsis viticola” value ([8]; 30 μm, 120 hrs) was −100.0 ± 0.0%, the “Mean percent fungal growth inhibition of Phomopsis viticola” value ([8]; 30 μm, 144 hrs) was −67.8 ± 21.5% and the IC50 ([8]; Diaporthe ampelina, 72 h, read-out: IC50 (growth inhibition)) was under 3.1 µM.
